Reference: US12472185B2, “Methods for killing antibiotic tolerant bacteria” (THE PENN STATE RESEARCH FOUNDATION, priority 2020, dated 2025)

Legend:
[1] = tested on: P. aeruginosa; assay: Lysis assays (total protein and DNA in supernatants); format: cell-based, Pseudomonas aeruginosa; conditions: 100 μM, 1 hr
Method: FIG. 5. NPIMA lyses Escherichia coli, Pseudomonas aeruginosa, and Staphylococcus aureus. Total protein (a) and DNA (b) found in supernatants as evidence of cell lysis after treatment of cells at a turbidity of 0.8 at 600 nm with 100 μM NPIMA after 1 hr for E. coli and P. aeruginosa and 6 hr for S. aureus. NPIMA, 5-nitro-3-phenyl-1H-indol-2-yl-methylamine hydrochloride.
Exponentially-growing E. coli BW25113 cells (turbidity 0.8 at 600 nm) were washed twice with 0.85% NaCl, resuspended in 1 ml of 1×PBS, and NPIMA (100 μM) was added for 1 hr for E. coli and P. aeruginosa and 6 hr for S. aureus with shaking at 250 rpm (0.1% DMSO was used as the negative control). Cell supernatants were collected after centrifuging at 6,500 g (4° C. for 15 min), and total protein was measured by the Bicinchoninic Acid (BCA) protein assay Kit (Prod #23227; Pierce). DNA in the supernatant (199 μl) was detected by adding 1 μl of Picogreen (P7589; Invitrogen) and incubating for 5 min at room temperature in the dark room. The fluorescence signal was read by a Tecan microplate reader (Infinite M200PRO) with 480 nm excitation and 520 nm emission by utilizing a calibration curved made with plasmid pEX18Ap at 0, 0.004, 0.008, 0.016, 0.063, 0.125, 0.25, and 0.5 ng/μl.

[2] = tested on: S. aureus; assay: LIVE/DEAD staining; format: cell-based, Staphylococcus aureus; conditions: 100 μM, 1 hr
Method: FIG. 4. NPIMA lyses Escherichia coli, Pseudomonas aeruginosa, and Staphylococcus aureus. LIVE/DEAD staining of (a) E. coli BW25113 after 0.75 hr, (b) P. aeruginosa PA14 after 1 hr, and (c) S. aureus after 1 hr treatment with NPIMA at 100 μM. […] White arrows indicate lysed cells. Representative images are shown. Scale bar=[…]. NPIMA, 5-nitro-3-phenyl-1H-indol-2-ylmethylamine hydrochloride.
Cell viability after treating with NPIMA was determined using the using the LIVE/DEAD BacLight Bacterial Viability Kit (catalog number, L7012; Molecular Probes, Inc., Eugene, OR). The fluorescence signal was analyzed via a Zeiss Axioscope.A1 using excitation at 485 nm and emission at 530 nm for green fluorescence and using excitation at 485 nm and emission at 630 nm for red fluorescence.

[3] = tested on: S. aureus exponentially-growing cells; assay: Killing at one MIC in PBS, NPIMA compared with cisplatin; format: cell-based, Staphylococcus aureus; conditions: 3 hr
Source text: FIG. 7. NPIMA compared width cisplatin for killing Pseudomonas aeruginosa, Escherichia coli, and Staphylococcus aureus. Survival of exponentially-growing cells of P. aeruginosa PA14 (a), E. coli (b), and S. aureus (c) treated with one MIC of NPIMA (♦) and cisplatin (●) for 3 hr in PBS. DMSO (▴) and NaClO4 (*) were used as a negative controls. MIC, minimum inhibitory concentration; NPIMA, 5-nitro-3-phenyl-1H-indol-2-yl-methylamine hydrochloride.
(§1) For bacterial viability, cells were washed twice with 0.85% NaCl, resuspended in 1×PBS, and cell counts were determined via the drop assay (Donegan, Matyac, Seidler, & Porteous, 1991). For human cell viability, pre-cultured human cancer HT-29 cells were dispensed in 98 μl in 96-well plates with approximately 5,000 cells/well. NPIMA was added (2 μl) to produce concentrations of 5, 10, 100, and 200 μM. For controls, Triton X-100 (positive control) and DMSO (negative solvent control), were used, and the medium was used for background. Plates were incubated in a humidified incubator (37° C., 5% CO2) for 24 hr. Cell viability was determined via a cell counting kit (CCK-8 Kit, ab228554; Abcam), and cytotoxicity was determined via the lactate dehydrogenase (LDH) assay (LDH Assay Kit, MK401; Takara).

[4] = tested on: P. aeruginosa + S. aureus; assay: In vitro Lubbock chronic wound pathogenic biofilm model; format: cell-based, Pseudomonas aeruginosa and Staphylococcus aureus; conditions: 0.5 mM, 6 hr
Method: FIG. 10. NPIMA kills S. aureus and P. aeruginosa in a wound model. Survival of total cells (P. aeruginosa+S. aureus) in the wound model after treatment with NPIMA for 6 h. The left bar is the solvent (DMSO) negative control.
Overnight cultures of S. aureus and P. aeruginosa PA14 were diluted in wound-like media (45% Bolton broth, 50% bovine plasma, and 5% laked horse blood; Sun, Dowd, Smith, Rhoads, & Wolcott, 2008) to a turbidity of 0.5 at 600 nm in 1 ml. Each culture (1%) was used to inoculate fresh 5 ml of wound-like media. The combined culture (200 μl/well) was placed into 96-well plates and incubated at 37° C. with shaking for 24 hr. The non-gel liquid was removed, then the gel was washed once with PBS. NPIMA (0.1 and 0.5 mM) and DMSO were then added (200 μl/well) to the plates, which were incubated for another 6 hr with shaking. By triturating, the gel with cells was removed and added to 0.8 ml of PBS, and the cell viability was measured by spreading 100 μl of diluted culture on LB plates.

[5] = tested on: S. aureus cells; assay: Survival of cells (drop assay); format: cell-based, Staphylococcus aureus; conditions: 200 μM
Method: FIG. 2. NPIMA eradicates Escherichia coli, Pseudomonas aeruginosa, and Staphylococcus aureus exponential cells. Survival after 6 hr for (a) E. coli BW25113 with NPIMA and 5-iodoindole at 100 μM, (b) P. aeruginosa PA14 with NPIMA and 5-iodoindole at 100 μM, and (c) S. aureus with NPIMA and 5-iodoindole at 200 μM. Asterisk indicates no viable cells detected. NPIMA, 5-nitro-3-phenyl-1H-indol-2-yl-methylamine hydrochloride.
as §1

In the case of `Cl.NCc1[nH]c2ccc([N+](=O)[O-])cc2c1-c1ccccc1` [NPIMA, [(5-nitro-3-phenyl-1H-indol-2-yl)methyl]amine hydrochloride], the “increase in DNA released compared to DMSO alone” value [1] is reported as 1.19±0.09 fold, the “total protein released compared to DMSO alone” value [1] is reported as 4.0±0.4 fold and the “cells killed (LIVE/DEAD)” value [2] is reported as 27%. For the same compound, the “effectiveness relative to cisplatin” value [3] was “less effective than cisplatin”, the “reduction of total viable number of cells compared to DMSO” value [4] was 10 fold and the “time to eradicate S. aureus cells” value [5] was 3 h.
